Data as given in ChEMBL document CHEMBL3596195, “Novel cajaninstilbene acid derivatives as antibacterial agents” (Eur J Med Chem, 2015).

Columns and labels:
Format in all cases: functional
Staphylococcus aureus [1] = experiment: Antibacterial activity against methicillin-resistant Staphylococcus aureus ATCC515992 assessed as bacterial growth inhibition after 24 hrs by broth dilution method; conditions: ATCC515992, 24 h
Staphylococcus aureus [2] = experiment: Antibacterial activity against methicillin-resistant Staphylococcus aureus ATCC513045 assessed as bacterial growth inhibition after 24 hrs by broth dilution method; conditions: ATCC513045, 24 h
Bacillus subtilis = experiment: Antibacterial activity against Bacillus subtilis ATCC6633 assessed as bacterial growth inhibition after 24 hrs by broth dilution method; conditions: ATCC6633, 24 h
Staphylococcus aureus [3] = experiment: Antibacterial activity against methicillin-resistant Staphylococcus aureus ATCC425055 assessed as bacterial growth inhibition after 24 hrs by broth dilution method; conditions: ATCC425055, 24 h
Staphylococcus aureus [4] = experiment: Antibacterial activity against methicillin-resistant Staphylococcus aureus ATCC510019 assessed as bacterial growth inhibition after 24 hrs by broth dilution method; conditions: ATCC510019, 24 h
Staphylococcus aureus [5] = experiment: Antibacterial activity against Staphylococcus aureus ATCC25923 assessed as bacterial growth inhibition after 24 hrs by broth dilution method; conditions: ATCC25923, 24 h
Staphylococcus aureus [6] = experiment: Antibacterial activity against methicillin-resistant Staphylococcus aureus ATCC523512 assessed as bacterial growth inhibition after 24 hrs by broth dilution method; conditions: ATCC523512, 24 h
Staphylococcus aureus [7] = experiment: Antibacterial activity against methicillin-resistant Staphylococcus aureus ATCC43300 assessed as bacterial growth inhibition after 24 hrs by broth dilution method; conditions: ATCC43300, 24 h
Staphylococcus aureus [8] = experiment: Antibacterial activity against methicillin-resistant Staphylococcus aureus ATCC52056 assessed as bacterial growth inhibition after 24 hrs by broth dilution method; conditions: ATCC52056, 24 h
Proteus vulgaris = experiment: Antibacterial activity against Proteus vulgaris ATCC49101 assessed as bacterial growth inhibition after 24 hrs by broth dilution method; conditions: ATCC49101, 24 h
Escherichia coli = experiment: Antibacterial activity against Escherichia coli ATCC25922 assessed as bacterial growth inhibition after 24 hrs by broth dilution method; conditions: ATCC25922, 24 h
Staphylococcus aureus [9] = experiment: Antibacterial activity against methicillin-resistant Staphylococcus aureus ATCC62202 assessed as bacterial growth inhibition after 24 hrs by broth dilution method; conditions: ATCC62202, 24 h
[10] = test system: Staphylococcus epidermidis; experiment: Antibacterial activity against Staphylococcus epidermidis ATCC12228 assessed as bacterial growth inhibition after 24 hrs by broth dilution method; conditions: ATCC12228, 24 h
Staphylococcus aureus [11] = experiment: Antibacterial activity against methicillin-resistant Staphylococcus aureus ATCC51033 assessed as bacterial growth inhibition after 24 hrs by broth dilution method; conditions: ATCC51033, 24 h
Pseudomonas aeruginosa = experiment: Antibacterial activity against Pseudomonas aeruginosa ATCC2785 assessed as bacterial growth inhibition after 24 hrs by broth dilution method; conditions: ATCC2785, 24 h

Measured: MIC

COC(=O)c1c(O)cc(OC)cc1/C=C/c1ccc(C)cc1
128 mg/L: Staphylococcus aureus [3] | Staphylococcus aureus [11]
> 128 mg/L: all other assays above

COC(=O)c1c(O)cc(OC)cc1/C=C/c1ccc(C(F)(F)F)cc1
128 mg/L: Staphylococcus aureus [2] | [10]
> 128 mg/L: all other assays above

COc1cc(C)c(C(=O)O)c(O)c1CC=C(C)C
> 128 mg/L: Proteus vulgaris | Escherichia coli | Pseudomonas aeruginosa
64 mg/L: Bacillus subtilis | Staphylococcus aureus [4] | Staphylococcus aureus [8] | [10]
32 mg/L: all other assays above

COC(=O)c1c(O)cc(OC)cc1/C=C/c1ccccc1F
128 mg/L: Bacillus subtilis | [10] | Pseudomonas aeruginosa
> 128 mg/L: all other assays above

COC(=O)c1c(/C=C/c2cccc(C#N)c2)cc(OC)c(CC=C(C)C)c1O
128 mg/L: Staphylococcus aureus [9] | [10]
> 128 mg/L: all other assays above

COc1cc(/C=C/c2cc(OC)c(OC)c(OC)c2)c(C(=O)O)c(O)c1CC=C(C)C
32 mg/L: Staphylococcus aureus [8] | Staphylococcus aureus [9] | [10]
> 128 mg/L: Escherichia coli
64 mg/L: Staphylococcus aureus [5] | Staphylococcus aureus [11]
> 64 mg/L: Proteus vulgaris | Pseudomonas aeruginosa
16 mg/L: all other assays above

COC(=O)c1c(O)cc(OC)cc1/C=C/c1cccc(F)c1
128 mg/L: Bacillus subtilis | Staphylococcus aureus [4] | Escherichia coli | [10] | Pseudomonas aeruginosa
> 128 mg/L: all other assays above

COC(=O)c1c(/C=C/c2cccc(F)c2)cc(OC)c(CC=C(C)C)c1O
128 mg/L: Staphylococcus aureus [2] | Bacillus subtilis | Staphylococcus aureus [4] | Staphylococcus aureus [9] | Staphylococcus aureus [11]
64 mg/L: Staphylococcus aureus [5] | Staphylococcus aureus [6]
> 128 mg/L: all other assays above
